# Patent US20240075017A1 (priority 2021, published 2024)
# “Also recorded” adds a separate entry of the source.
# Experiments:
# SARS-CoV-2-GFP = type: cell-based
# [1] = test system: wild-type (wt) SARS-CoV-2; assay: Plaque assay of released viral progeny from pre-treated Vero E6 cells; type: cell-based; conditions: 6 h pre-treatment, range of concentrations, MOI 0.01, 48 hours post-infection
# [2] = test system: SARS-CoV-2 (strain MUC-IMB-1); type: cell-based
# NHBE cells = type: cell-based, human
# IL6 = type: cell-based, human; conditions: NHBEs, 0.75 μM, mock-, SARS-CoV or SARS-CoV-2 infected, 24 h post-infection
# [3] = test system: SARS-CoV-2 (strain MUC-IMB-1); assay: Viral nucleoprotein (NP) western blot in A549-ACE2 cells; type: cell-based
# IP-10 = assay: Secreted IP10 by ELISA in NHBEs; type: cell-based, human
# SARS-CoV = conditions: described previously (ref. 70); cited from earlier work
# [4] = test system: SARS-CoV-2 (strain MUC-IMB-1); assay: NP immunofluorescence in primary normal human bronchial cells (NHBE) ex vivo; type: cell-based; conditions: 6 h pre-treatment, MOI 3, 24 hours post-infection
# [5] = test system: SARS-CoV (strain Frankfurt 1); type: cell-based; conditions: A549-ACE2 cells, 6 h pre-treatment, 24 hours infection
molecule,measurement,setting,value
"NC(CCSCCCCC(=O)O)C(=O)O (racemic) [CBHcy, S-(4-Carboxybutyl)-D,L-homocysteine]",antiviral activity: growth of SARS-CoV-2-GFP reporter virus,SARS-CoV-2-GFP,have antiviral activity against SARS-CoV-2
same,released viral progeny in the supernatant by plaque assay,[1],dose-dependent suppression of the wt SARS-CoV-2
"Nc1ncnc2c1ncn2C[C@@H](O)[C@@H](O)C(=O)O [DER, D-eritadenine]",antiviral activity: growth of SARS-CoV-2-GFP reporter virus,SARS-CoV-2-GFP,have antiviral activity against SARS-CoV-2
"Nc1nccc2c1ncn2[C@@H]1C=C(CO)[C@@H](O)[C@H]1O [DZNep, 3-deazaneplanocin A]",expression of viral proteins (SARS-CoV-2) by mass spectrometry,[2],clear reduction
same,"abundance changes of NP and spike (S), SARS-CoV-2","[2]; A549-ACE2 (0.75 μM, 24 h) and NHBEs (1.5 μM, 36 h)",DZNep-dependent inhibition of SARS-CoV-2
same,"abundance of innate immunity related factors (e.g. IL1RN, C3 and TNFAIP3/A20)",NHBE cells,DZNep-dependent changes in abundance
same,"factors counteracting fibrotic processes (e.g. ELAFIN, SLPI and ECM1)",NHBE cells,up-regulation of factors counteracting fibrotic processes
same,"factors of extrinsic coagulation cascade (e.g. F3 and TFPI2) and plasminogen activation system (e.g. PAI1, PLAT, PLAU)",NHBE cells,reduction of factors of extrinsic coagulation cascade
same,"pulmonary fibrosis biomarkers (e.g. COL4A1, MMP14 and SERPINE1)",NHBE cells,reduction of pulmonary fibrosis biomarkers
same,IL6 secretion/expression by ELISA,IL6,significantly reduced IL6 expression in all tested conditions
same,antiviral activity: growth of SARS-CoV-2-GFP reporter virus,SARS-CoV-2-GFP,have antiviral activity against SARS-CoV-2; also recorded: particularly strong antiviral efficacy
same,role of STAT1 dependent interferon response in SARS-CoV-2 inhibition by the compound,"SARS-CoV-2-GFP; STAT1 KO vs NTC A549-ACE2 cells, 6 h pre-treatment with DZNep and/or interferon alpha",does not play a major role in SARS-CoV-2 inhibition in vitro
same,released viral progeny in the supernatant by plaque assay,[1],dose-dependent suppression of the wt SARS-CoV-2
same,virus nucleoprotein (NP) expression by western blot,[3],potent antiviral effect against SARS-CoV-2
same,IP-10 secretion by ELISA,IP-10,IP-10 secretion was enhanced
same,antiviral activity against SARS-CoV in an in vivo infection model,SARS-CoV,did not show antiviral activity against SARS-CoV
same,inhibition of SARS-CoV-2 in primary human ex-vivo infection model,[4],potent inhibitor of SARS-CoV-2
same,"antiviral effect against SARS-CoV, expression of viral protein N",[5],do not observe an antiviral effect
"CNc1ccc(/C=C/c2c(F)cccc2Cl)cc1 [FIDAS-5, (E)-4-(2-chloro-6-fluorostyryl)-N-methylaniline]",antiviral activity of co-treatment with DZNep,SARS-CoV-2-GFP,synergistic antiviral activity
same,antiviral activity: growth of SARS-CoV-2-GFP reporter virus,SARS-CoV-2-GFP,have antiviral activity against SARS-CoV-2
same,released viral progeny in the supernatant by plaque assay,[1],dose-dependent suppression of the wt SARS-CoV-2
CCN(CCO)CCCC(C)Nc1ccnc2cc(Cl)ccc12 (stereo not drawn) [Hydroxychloroquine],influence of DZNep co-treatment on the antiviral efficacy of the compound,SARS-CoV-2-GFP,does not negatively influence the antiviral efficacy
Cc1nc2ccc(-c3c(Nc4ccccn4)[nH]c4c(-c5ccccc5)c(-c5ccccc5)nn4c3=O)cc2s1 [MAT2A inhibitor 1],antiviral activity: growth of SARS-CoV-2-GFP reporter virus,SARS-CoV-2-GFP,have antiviral activity against SARS-CoV-2
"CN(C)CCc1nnc2cc(-c3ccccc3)c3cc(Cl)ccc3n12 [PF-9366, 2-(7-Chloro-5-phenyl-[1,2,4]triazolo[4,3-a]quinolin-1-yl)-N,N-dimethylethan-1-amine]",antiviral activity: growth of SARS-CoV-2-GFP reporter virus,SARS-CoV-2-GFP,have antiviral activity against SARS-CoV-2
CC(C)NC[C@@H](C(=O)N1CCN(c2ncnc3c2[C@H](C)C[C@H]3O)CC1)c1ccc(Cl)cc1 [ipatasertib],influence of DZNep co-treatment on the antiviral efficacy of the compound,SARS-CoV-2-GFP,does not negatively influence the antiviral efficacy
CNC(=O)[C@@H](NC(=O)[C@H](CC(C)C)[C@H](O)C(=O)NO)C(C)(C)C [marimastat],influence of DZNep co-treatment on the antiviral efficacy of the compound,SARS-CoV-2-GFP,does not negatively influence the antiviral efficacy
IFN-α,"synergy of combination with DZNep (combination index, CI)",SARS-CoV-2-GFP,strong synergism
